{
  "source": "PubChem BioAssay (NCI)",
  "test_in_all_cases": "NCI anticancer screen, dose series, 48 h",
  "key": {"[1]": {"tested_on": "786-0 renal"}, "[2]": {"tested_on": "A549 NSCLC"}, "[3]": {"tested_on": "CAKI-1 renal"}, "[4]": {"tested_on": "COLO 205 colon"}, "[5]": {"tested_on": "DU-145 prostate"}, "[6]": {"tested_on": "HCC-2998 colon"}, "[7]": {"tested_on": "HCT-116 colon"}, "[8]": {"tested_on": "HCT-15 colon"}, "[9]": {"tested_on": "HL-60(TB) leukemia"}, "[10]": {"tested_on": "HOP-92 NSCLC"}, "[11]": {"tested_on": "HT29 colon"}, "[12]": {"tested_on": "IGROV1 ovarian"}, "[13]": {"tested_on": "KM12 colon"}, "[14]": {"tested_on": "M14 melanoma"}, "[15]": {"tested_on": "MALME-3M melanoma"}, "[16]": {"tested_on": "MCF7 breast"}, "[17]": {"tested_on": "MDA-MB-435"}, "[18]": {"tested_on": "MDA-N"}, "[19]": {"tested_on": "NCI-H226 lung"}, "[20]": {"tested_on": "NCI-H23 lung"}, "[21]": {"tested_on": "NCI-H522 lung"}, "[22]": {"tested_on": "NCI/ADR-RES ovarian"}, "[23]": {"tested_on": "OVCAR-3 ovarian"}, "[24]": {"tested_on": "OVCAR-4 ovarian"}, "[25]": {"tested_on": "OVCAR-5 ovarian"}, "[26]": {"tested_on": "OVCAR-8 ovarian"}, "[27]": {"tested_on": "PC-3 prostate"}, "[28]": {"tested_on": "RPMI-8226 leukemia"}, "[29]": {"tested_on": "RXF 393 renal"}, "[30]": {"tested_on": "SF-268 CNS"}, "[31]": {"tested_on": "SF-295 CNS"}, "[32]": {"tested_on": "SF-539 CNS"}, "[33]": {"tested_on": "SK-MEL-2 melanoma"}, "[34]": {"tested_on": "SK-MEL-28 melanoma"}, "[35]": {"tested_on": "SK-MEL-5 melanoma"}, "[36]": {"tested_on": "SN12C renal"}, "[37]": {"tested_on": "SNB-19 CNS"}, "[38]": {"tested_on": "SNB-75 CNS"}, "[39]": {"tested_on": "SR leukemia"}, "[40]": {"tested_on": "SW-620 colon"}, "[41]": {"tested_on": "T-47D breast"}, "[42]": {"tested_on": "TK-10 renal"}, "[43]": {"tested_on": "U251 CNS"}, "[44]": {"tested_on": "UACC-257 melanoma"}, "[45]": {"tested_on": "UACC-62 melanoma"}, "[46]": {"tested_on": "UO-31 renal"}, "[47]": {"tested_on": "A498 renal"}, "[48]": {"tested_on": "ACHN renal"}, "[49]": {"tested_on": "BT-549 breast"}, "[50]": {"tested_on": "CCRF-CEM leukemia"}, "[51]": {"tested_on": "EKVX NSCLC"}, "[52]": {"tested_on": "HOP-62 NSCLC"}, "[53]": {"tested_on": "K-562 leukemia"}, "[54]": {"tested_on": "NCI-H460 lung"}, "[55]": {"tested_on": "SK-OV-3 ovarian"}},
  "note": "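These data come from cells grown in 96-well plates and exposed to compound for 48 hours at five concentrations. TGI marks complete inhibition of growth.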",
  "data": [
    {"compound": "ClCc1c(-c2ccccc2)nn(-c2ccccc2)c1CCl", "values": [
      {"measurement": "TGI", "setting": "[1]", "value": 22, "unit": "µM"},
      {"measurement": "TGI", "setting": "[2]", "value": 37.3, "unit": "µM"},
      {"measurement": "TGI", "setting": "[3]", "value": 3.71, "unit": "µM"},
      {"measurement": "TGI", "setting": "[4]", "value": 25.5, "unit": "µM"},
      {"measurement": "TGI", "setting": "[5]", "value": 29, "unit": "µM"},
      {"measurement": "TGI", "setting": "[6]", "value": 26.8, "unit": "µM"},
      {"measurement": "TGI", "setting": "[7]", "value": 25.1, "unit": "µM"},
      {"measurement": "TGI", "setting": "[8]", "value": 27, "unit": "µM"},
      {"measurement": "TGI", "setting": "[9]", "value": 6.13, "unit": "µM"},
      {"measurement": "TGI", "setting": "[10]", "value": 7.69, "unit": "µM"},
      {"measurement": "TGI", "setting": "[11]", "value": 31.9, "unit": "µM"},
      {"measurement": "TGI", "setting": "[12]", "value": 42.9, "unit": "µM"},
      {"measurement": "TGI", "setting": "[13]", "value": 32.7, "unit": "µM"},
      {"measurement": "TGI", "setting": "[14]", "value": 35.5, "unit": "µM"},
      {"measurement": "TGI", "setting": "[15]", "value": 30.6, "unit": "µM"},
      {"measurement": "TGI", "setting": "[16]", "value": 23.5, "unit": "µM"},
      {"measurement": "TGI", "setting": "[17]", "value": 6.42, "unit": "µM"},
      {"measurement": "TGI", "setting": "[18]", "value": 24.2, "unit": "µM"},
      {"measurement": "TGI", "setting": "[19]", "value": 72.8, "unit": "µM"},
      {"measurement": "TGI", "setting": "[20]", "value": 34.7, "unit": "µM"},
      {"measurement": "TGI", "setting": "[21]", "value": 0.416, "unit": "µM"},
      {"measurement": "TGI", "setting": "[22]", "value": "> 100", "unit": "µM"},
      {"measurement": "TGI", "setting": "[23]", "value": 26.3, "unit": "µM"},
      {"measurement": "TGI", "setting": "[24]", "value": 3.83, "unit": "µM"},
      {"measurement": "TGI", "setting": "[25]", "value": 35, "unit": "µM"},
      {"measurement": "TGI", "setting": "[26]", "value": 30.8, "unit": "µM"},
      {"measurement": "TGI", "setting": "[27]", "value": 21.4, "unit": "µM"},
      {"measurement": "TGI", "setting": "[28]", "value": 7.86, "unit": "µM"},
      {"measurement": "TGI", "setting": "[29]", "value": 28.3, "unit": "µM"},
      {"measurement": "TGI", "setting": "[30]", "value": 43.6, "unit": "µM"},
      {"measurement": "TGI", "setting": "[31]", "value": 32.8, "unit": "µM"},
      {"measurement": "TGI", "setting": "[32]", "value": 33.1, "unit": "µM"},
      {"measurement": "TGI", "setting": "[33]", "value": 26.5, "unit": "µM"},
      {"measurement": "TGI", "setting": "[34]", "value": 32.3, "unit": "µM"},
      {"measurement": "TGI", "setting": "[35]", "value": 25.2, "unit": "µM"},
      {"measurement": "TGI", "setting": "[36]", "value": 42.3, "unit": "µM"},
      {"measurement": "TGI", "setting": "[37]", "value": 43, "unit": "µM"},
      {"measurement": "TGI", "setting": "[38]", "value": 16.7, "unit": "µM"},
      {"measurement": "TGI", "setting": "[39]", "value": 33.4, "unit": "µM"},
      {"measurement": "TGI", "setting": "[40]", "value": 5.21, "unit": "µM"},
      {"measurement": "TGI", "setting": "[41]", "value": 5.96, "unit": "µM"},
      {"measurement": "TGI", "setting": "[42]", "value": 29.2, "unit": "µM"},
      {"measurement": "TGI", "setting": "[43]", "value": 27.6, "unit": "µM"},
      {"measurement": "TGI", "setting": "[44]", "value": 34.1, "unit": "µM"},
      {"measurement": "TGI", "setting": "[45]", "value": 21.4, "unit": "µM"},
      {"measurement": "TGI", "setting": "[46]", "value": 45, "unit": "µM"}
    ]},
    {"compound": "COc1cc(N(C)C)ccc1/C=c1/c2ccccc2n2c1cc(-c1ccccc1)[n+]2C", "values": [
      {"measurement": "TGI", "setting": "[1]", "value": 1.22, "unit": "µM"},
      {"measurement": "TGI", "setting": "[47]", "value": 6.76, "unit": "µM"},
      {"measurement": "TGI", "setting": "[2]", "value": 1.38, "unit": "µM"},
      {"measurement": "TGI", "setting": "[48]", "value": 1.31, "unit": "µM"},
      {"measurement": "TGI", "setting": "[49]", "value": 1.18, "unit": "µM"},
      {"measurement": "TGI", "setting": "[3]", "value": 2.33, "unit": "µM"},
      {"measurement": "TGI", "setting": "[50]", "value": 1.55, "unit": "µM"},
      {"measurement": "TGI", "setting": "[4]", "value": 0.37, "unit": "µM"},
      {"measurement": "TGI", "setting": "[5]", "value": 1.26, "unit": "µM"},
      {"measurement": "TGI", "setting": "[51]", "value": 2.21, "unit": "µM"},
      {"measurement": "TGI", "setting": "[6]", "value": 1.76, "unit": "µM"},
      {"measurement": "TGI", "setting": "[9]", "value": 1.26, "unit": "µM"},
      {"measurement": "TGI", "setting": "[52]", "value": 1.03, "unit": "µM"},
      {"measurement": "TGI", "setting": "[53]", "value": "> 100", "unit": "µM"},
      {"measurement": "TGI", "setting": "[13]", "value": 0.418, "unit": "µM"},
      {"measurement": "TGI", "setting": "[14]", "value": 1.45, "unit": "µM"},
      {"measurement": "TGI", "setting": "[17]", "value": 1.32, "unit": "µM"},
      {"measurement": "TGI", "setting": "[18]", "value": 1.26, "unit": "µM"},
      {"measurement": "TGI", "setting": "[19]", "value": 2.11, "unit": "µM"},
      {"measurement": "TGI", "setting": "[54]", "value": 1.23, "unit": "µM"},
      {"measurement": "TGI", "setting": "[22]", "value": "> 100", "unit": "µM"},
      {"measurement": "TGI", "setting": "[23]", "value": 1.4, "unit": "µM"},
      {"measurement": "TGI", "setting": "[24]", "value": 2.02, "unit": "µM"},
      {"measurement": "TGI", "setting": "[27]", "value": 1.1, "unit": "µM"},
      {"measurement": "TGI", "setting": "[28]", "value": 1.3, "unit": "µM"},
      {"measurement": "TGI", "setting": "[29]", "value": 1.37, "unit": "µM"},
      {"measurement": "TGI", "setting": "[31]", "value": 1.49, "unit": "µM"},
      {"measurement": "TGI", "setting": "[32]", "value": 0.873, "unit": "µM"},
      {"measurement": "TGI", "setting": "[33]", "value": 2.03, "unit": "µM"},
      {"measurement": "TGI", "setting": "[34]", "value": 2.04, "unit": "µM"},
      {"measurement": "TGI", "setting": "[55]", "value": 1.44, "unit": "µM"},
      {"measurement": "TGI", "setting": "[37]", "value": 1.58, "unit": "µM"},
      {"measurement": "TGI", "setting": "[38]", "value": 1.16, "unit": "µM"},
      {"measurement": "TGI", "setting": "[40]", "value": 2.02, "unit": "µM"},
      {"measurement": "TGI", "setting": "[42]", "value": 1.83, "unit": "µM"},
      {"measurement": "TGI", "setting": "[44]", "value": 1.66, "unit": "µM"}
    ]}
  ]
}
